Experimental data published in patent US20250109107A1, “AROMATIC RING-FUSED HETEROCYCLIC RING COMPOUND AS POTASSIUM CHANNEL REGULATOR, AND PREPARATION THEREFOR AND USE THEREOF” (Shanghai Zhimeng Biopharma, Inc., priority 2022, published 2025).
pEC50: −log10 of the molar value.

Target: T1, KCNQ2 potassium channels (CHO-KCNQ2 cells) (Homo sapiens, UniProt O43526)
T1 construct: expressed in transfected cells; host or cells: CHO cells stably expressing KCNQ2 (G418 selection in the culture medium)
Assay: Potassium ion channel opener activity test (FDSS/μCELL detection, FluxOR thallium flux)
Type: cell-based
Details: for pEC50: 8 concentrations 0.045-100 μM, 3 replicate wells; for Maximum agonist rate (%): highest test concentration 100 μM, ratio of 180 s
Protocol: Example A1 Potassium Ion Channel Opener Activity Test (FDSS/p CELL Detection)
Cell preparation: CHO-KCNQ2 cells were cultured in a 175 cm^2 culture flask, and when the cell density grew to 60˜80%, the culture medium was removed and the cells were washed once with 7 mL PBS (Phosphate Buffered Saline), and then 3 mL of 0.25% Trypsin was added for digestion. After completion of digestion, 7 mL of culture medium (90% DMEM/F12+10% FBS+500 μg/mL G418) was added to neutralize, and centrifuged at 800 rpm for 3 min; the supernatant was aspirated, then 5 mL of culture medium was added to resuspend the cells, and the cells were counted.
Cell spreading: according to the cell counting results, the density was adjusted to 3×10^4 cells/well. After standing at room temperature for 30 minutes, the cells were placed in a CO2 incubator at 37° C. overnight, and incubated for 16-18 hours to reach a cell density of about 80%.
Fluorescent dye incubation: Cell culture solution was discarded, 80 μL/well of loading buffer was added and the cells were incubated for 60 minutes at room temperature and protected from light.
Compound incubation: Loading buffer was discarded, 80 μL/well of prepared compound solution was added, and the cells were incubated for 20 min at room temperature and protected from light.
Fluorescence data acquisition: Real-time fluorescence signal recording was performed using an FDSS/pCELL instrument with an excitation wavelength of 480 nm and an emission wavelength of 540 nm, and the signal was recorded once per second. 10 seconds of the baseline was recorded, then 20 μL/well of stimulation buffer was added, and the recording was continued until the end of 180 seconds.
Loading buffer: 10 mL/plate, prepared as follows:
Stimulation buffer: 5 mL/plate, prepared as follows:
The above buffers were obtained from a commercially available kit called FluxOR potassium ion channel assay.
20 mM stock solution of compound in DMSO was prepared, 10 μL of 20 mM compound stock solution was taken into 20 μL of DMSO solution, and a 3-fold serial dilution was performed to form 8 intermediate concentrations; then the intermediate concentrations of the compounds were taken respectively into test buffer, and a 200-fold dilution was performed to obtain the final concentration to be tested, and 80 μL of compound was taken and added to the assay plate.
The highest test concentration was 100 μM, and there was a total of8 concentrations. i.e., 100, 33.33, 11.11, 3.70, 1.23, 0.41, 0.137, 0.045 μM, respectively, with 3 replicate wells for each concentration.
The experimental data were analyzed by Excel 2007, GraphPad Prism 5.0 software, and the ratio of 180 s was counted to calculate the agonistic effect. The compound agonistic effect was calculated by the following equation: […]

T1 sequence (O43526 whole entry): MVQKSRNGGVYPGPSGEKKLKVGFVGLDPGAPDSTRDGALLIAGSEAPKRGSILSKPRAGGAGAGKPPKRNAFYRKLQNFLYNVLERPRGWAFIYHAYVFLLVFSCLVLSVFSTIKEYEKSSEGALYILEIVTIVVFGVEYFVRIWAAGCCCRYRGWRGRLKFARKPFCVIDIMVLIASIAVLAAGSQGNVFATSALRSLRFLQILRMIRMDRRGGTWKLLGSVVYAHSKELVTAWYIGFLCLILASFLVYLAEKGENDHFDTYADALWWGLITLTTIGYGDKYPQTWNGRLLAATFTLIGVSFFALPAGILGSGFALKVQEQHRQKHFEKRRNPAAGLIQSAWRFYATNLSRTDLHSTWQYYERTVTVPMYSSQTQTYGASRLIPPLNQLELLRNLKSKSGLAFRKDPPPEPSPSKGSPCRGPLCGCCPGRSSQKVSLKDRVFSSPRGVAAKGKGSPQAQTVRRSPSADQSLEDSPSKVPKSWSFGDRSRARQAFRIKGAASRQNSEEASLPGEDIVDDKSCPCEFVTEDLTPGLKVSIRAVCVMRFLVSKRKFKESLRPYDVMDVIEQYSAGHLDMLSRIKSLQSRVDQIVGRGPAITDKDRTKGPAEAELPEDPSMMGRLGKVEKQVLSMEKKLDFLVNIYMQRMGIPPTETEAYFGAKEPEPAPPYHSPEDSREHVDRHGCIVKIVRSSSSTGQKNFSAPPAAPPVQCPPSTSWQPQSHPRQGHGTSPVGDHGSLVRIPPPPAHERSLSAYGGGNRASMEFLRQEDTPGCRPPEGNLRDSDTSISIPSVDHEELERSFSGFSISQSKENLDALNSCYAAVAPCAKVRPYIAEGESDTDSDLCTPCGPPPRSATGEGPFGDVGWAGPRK

Compound | pEC50 | Maximum agonist rate (%)
Cc1cc2c(c(C)c1NC(=O)CC1(C)CC1)CN(c1ccc(F)cc1)CC2 [Compound 3001] | 6.40 | 36.30%
Cc1cc2c(c(C)c1NC(=O)CC1(C)CC1)CN(c1ccc(C(F)(F)F)cc1)CC2 [Compound 3002] | 7.23 | 38.96%
